Source: the OligoGym collection
HELM strings list units from the 5' end as sugar, base in round brackets, then linkage (d deoxyribose, r ribose, m 2'-O-methyl, p phosphodiester). Strings are as the collection lists them; they lack the last nucleoside at the 3' end of the tested compound. [moe] = 2'-O-(2-methoxyethyl) (MOE); [sp] = phosphorothioate linkage; [m5C] = 5-methylcytosine

Target: UBE3A-ATS
Assay: mouse, dose not given
Details: ASO

| Substance | 3 h FOB score |
| --- | --- |
| RNA1{[moe](T)[sp].[moe]([m5C])p.[moe](T)p.[moe]([m5C])p.[moe](G)p.d(G)[sp].d(G)[sp].d(T)[sp].d(A)[sp].d(T)[sp].d(A)[sp].d(T)[sp].d(A)[sp].d(A)[sp].d(A)[sp].[moe](T)p.[moe](T)p.[moe](A)[sp].[moe](A)}$$$$ (last 3' nucleoside missing) | 0 score 0-7 |
| RNA1{[moe](T)[sp].[moe]([m5C])p.[moe](T)p.[moe]([m5C])p.[moe]([m5C])p.d(A)[sp].d(G)[sp].d(T)[sp].d(T)[sp].d(T)[sp].d(T)[sp].d([m5C])[sp].d(G)[sp].d([m5C])[sp].d([m5C])[sp].[moe]([m5C])p.[moe](G)p.[moe](T)[sp].[moe](T)}$$$$ (last 3' nucleoside missing) | 4.7 score 0-7 |
| RNA1{[moe](T)[sp].[moe]([m5C])p.[moe]([m5C])p.[moe]([m5C])p.[moe](A)p.d(T)[sp].d(T)[sp].d([m5C])[sp].d(A)[sp].d(G)[sp].d([m5C])[sp].d(A)[sp].d([m5C])[sp].d(T)[sp].d(T)[sp].[moe](A)p.[moe](G)p.[moe](G)[sp].[moe](T)}$$$$ (last 3' nucleoside missing) | 3 score 0-7 |
| RNA1{[moe](T)[sp].[moe]([m5C])p.[moe]([m5C])p.[moe]([m5C])p.[moe](A)p.d(T)[sp].d([m5C])[sp].d(A)[sp].d(T)[sp].d([m5C])[sp].d(A)[sp].d(G)[sp].d(T)[sp].d(G)[sp].d(T)[sp].[moe](G)p.[moe](T)p.[moe](G)[sp].[moe]([m5C])}$$$$ (last 3' nucleoside missing) | 3.25 score 0-7 |
| RNA1{[moe]([m5C])[sp].[moe](A)[sp].[moe](A)[sp].[moe]([m5C])[sp].[moe](T)[sp].d(G)[sp].d(T)[sp].d(T)[sp].d(A)[sp].d([m5C])[sp].d([m5C])[sp].d(A)[sp].d(A)[sp].d(G)[sp].d(A)[sp].[moe]([m5C])[sp].[moe](T)[sp].[moe](T)[sp].[moe]([m5C])}$$$$ (last 3' nucleoside missing) | 4.8 score 0-7 |
| RNA1{[moe]([m5C])[sp].[moe](A)p.[moe](A)p.[moe](G)p.[moe](A)p.d([m5C])[sp].d([m5C])[sp].d(T)[sp].d(A)[sp].d(T)[sp].d(A)[sp].d(G)[sp].d(G)[sp].d(A)[sp].d([m5C])[sp].[moe]([m5C])p.[moe](T)p.[moe]([m5C])[sp].[moe](A)}$$$$ (last 3' nucleoside missing) | 3 score 0-7 |
| RNA1{[moe]([m5C])[sp].[moe](A)p.[moe](A)p.[moe](T)p.[moe](G)p.d(G)[sp].d(T)[sp].d(T)[sp].d(T)[sp].d(A)[sp].d(G)[sp].d(T)[sp].d(G)[sp].d(T)[sp].d([m5C])[sp].[moe](A)p.[moe](T)p.[moe](A)[sp].[moe](T)}$$$$ (last 3' nucleoside missing) | 5 score 0-7 |
| RNA1{[moe]([m5C])[sp].[moe](A)p.[moe](A)p.[moe]([m5C])p.[moe](T)p.d(T)[sp].d([m5C])[sp].d(A)[sp].d(T)[sp].d([m5C])[sp].d(A)[sp].d(A)[sp].d(T)[sp].d(A)[sp].d(T)[sp].[moe](T)p.[moe](T)p.[moe]([m5C])[sp].[moe]([m5C])}$$$$ (last 3' nucleoside missing) | 1 score 0-7 |
| RNA1{[moe]([m5C])[sp].[moe](A)p.[moe](G)p.[moe](A)p.[moe](G)p.d(T)[sp].d(G)[sp].d(T)[sp].d([m5C])[sp].d(T)[sp].d(T)[sp].d(A)[sp].d(G)[sp].d(G)[sp].d(G)[sp].[moe](T)p.[moe]([m5C])p.[moe](T)[sp].[moe]([m5C])}$$$$ (last 3' nucleoside missing) | 5.5 score 0-7 |
| RNA1{[moe]([m5C])[sp].[moe](A)p.[moe](G)p.[moe](A)p.[moe](T)p.d(T)[sp].d([m5C])[sp].d([m5C])[sp].d(T)[sp].d(A)[sp].d(A)[sp].d(A)[sp].d(T)[sp].d(A)[sp].d([m5C])[sp].[moe](G)p.[moe]([m5C])p.[moe](A)[sp].[moe]([m5C])}$$$$ (last 3' nucleoside missing) | 0 score 0-7 |
| RNA1{[moe]([m5C])[sp].[moe](A)p.[moe](G)p.[moe](A)p.[moe]([m5C])p.d(T)[sp].d(T)[sp].d(A)[sp].d(T)[sp].d(T)[sp].d(G)[sp].d(A)[sp].d(G)[sp].d(G)[sp].d(A)[sp].[moe](T)p.[moe](G)p.[moe](G)[sp].[moe](T)}$$$$ (last 3' nucleoside missing) | 5.7 score 0-7 |
| RNA1{[moe]([m5C])[sp].[moe](A)p.[moe](G)p.[moe](G)p.[moe](T)p.d(G)[sp].d(T)[sp].d([m5C])[sp].d(T)[sp].d(T)[sp].d(A)[sp].d(T)[sp].d(A)[sp].d(T)[sp].d([m5C])[sp].[moe](T)p.[moe](A)p.[moe](T)[sp].[moe](G)}$$$$ (last 3' nucleoside missing) | 0 score 0-7 |
| RNA1{[moe]([m5C])[sp].[moe](A)p.[moe](G)p.[moe](T)[sp].d(T)[sp].d(A)[sp].d(G)[sp].d(G)[sp].d(T)[sp].d(T)[sp].d(A)[sp].d(G)[sp].[moe](T)p.[moe](G)p.[moe]([m5C])p.[moe](A)[sp].[moe]([m5C])}$$$$ (last 3' nucleoside missing) | 2 score 0-7 |
| RNA1{[moe]([m5C])[sp].[moe](A)p.[moe](G)p.[moe](T)p.[moe](A)p.d(G)[sp].d(T)[sp].d(G)[sp].d(G)[sp].d(T)[sp].d(A)[sp].d(T)[sp].d([m5C])[sp].d(A)[sp].d(A)[sp].[moe](A)p.[moe](T)p.[moe]([m5C])[sp].[moe](T)}$$$$ (last 3' nucleoside missing) | 6.2 score 0-7 |
| RNA1{[moe]([m5C])[sp].[moe](A)p.[moe](G)p.[moe](T)p.[moe](A)p.d(T)[sp].d([m5C])[sp].d(T)[sp].d(T)[sp].d(A)[sp].d(A)[sp].d([m5C])[sp].d(T)[sp].d(G)[sp].d(G)[sp].[moe](T)p.[moe](G)p.[moe](A)[sp].[moe](A)}$$$$ (last 3' nucleoside missing) | 1 score 0-7 |
| RNA1{[moe]([m5C])[sp].[moe](A)p.[moe](G)p.[moe](T)p.[moe](T)[sp].d(A)[sp].d(G)[sp].d(G)[sp].d(T)[sp].d(T)[sp].d(A)[sp].d(G)[sp].d(T)[sp].[moe](G)p.[moe]([m5C])p.[moe](A)[sp].[moe]([m5C])}$$$$ (last 3' nucleoside missing) | 4 score 0-7 |
| RNA1{[moe]([m5C])[sp].[moe](A)p.[moe](G)p.[moe](T)p.[moe](T)p.[moe](A)[sp].d(G)[sp].d(G)[sp].d(T)[sp].d(T)[sp].d(A)[sp].d(G)[sp].d(T)[sp].d(G)[sp].[moe]([m5C])p.[moe](A)[sp].[moe]([m5C])}$$$$ (last 3' nucleoside missing) | 3.7 score 0-7 |
| RNA1{[moe]([m5C])[sp].[moe](A)p.[moe](G)p.[moe](T)p.[moe](T)p.[moe](A)p.d(G)[sp].d(G)[sp].d(T)[sp].d(T)[sp].d(A)[sp].d(G)[sp].d(T)[sp].d(G)[sp].d([m5C])[sp].d(A)[sp].[moe]([m5C])p.[moe](A)[sp].[moe](G)}$$$$ (last 3' nucleoside missing) | 5.2 score 0-7 |
| RNA1{[moe]([m5C])[sp].[moe](A)p.[moe](G)p.[moe](T)p.[moe](T)p.d(A)[sp].d(G)[sp].d(G)[sp].d(T)[sp].d(T)[sp].d(A)[sp].d(G)[sp].d(T)[sp].d(G)[sp].d([m5C])[sp].[moe](A)p.[moe]([m5C])p.[moe](A)[sp].[moe](G)}$$$$ (last 3' nucleoside missing) | 6 score 0-7 |
| RNA1{[moe]([m5C])[sp].[moe](A)p.[moe](G)p.[moe](T)p.[moe](T)p.d(G)[sp].d(T)[sp].d(G)[sp].d(T)[sp].d(A)[sp].d(T)[sp].d(T)[sp].d(G)[sp].d(A)[sp].d([m5C])[sp].[moe](T)p.[moe](A)p.[moe](A)[sp].[moe](G)}$$$$ (last 3' nucleoside missing) | 4.8 score 0-7 |
| RNA1{[moe]([m5C])[sp].[moe](A)p.[moe](G)p.[moe](T)p.[moe](T)p.d(T)[sp].d(T)[sp].d([m5C])[sp].d(G)[sp].d([m5C])[sp].d([m5C])[sp].d([m5C])[sp].d(G)[sp].d(T)[sp].d(T)[sp].[moe](A)p.[moe]([m5C])p.[moe]([m5C])[sp].[moe](T)}$$$$ (last 3' nucleoside missing) | 5 score 0-7 |
| RNA1{[moe]([m5C])[sp].[moe](A)p.[moe](G)p.[moe]([m5C])p.[moe]([m5C])p.d(A)[sp].d(G)[sp].d(G)[sp].d(T)[sp].d(G)[sp].d(T)[sp].d([m5C])[sp].d(T)[sp].d(T)[sp].d(A)[sp].[moe](T)p.[moe](A)p.[moe](T)[sp].[moe]([m5C])}$$$$ (last 3' nucleoside missing) | 2.3 score 0-7 |
| RNA1{[moe]([m5C])[sp].[moe](A)p.[moe](G)p.[moe]([m5C])p.[moe]([m5C])p.d(A)[sp].d([m5C])[sp].d(T)[sp].d(T)[sp].d(T)[sp].d(G)[sp].d([m5C])[sp].d(A)[sp].d(A)[sp].d([m5C])[sp].[moe](T)p.[moe]([m5C])p.[moe](A)[sp].[moe](A)}$$$$ (last 3' nucleoside missing) | 6.2 score 0-7 |
| RNA1{[moe]([m5C])[sp].[moe](A)p.[moe](T)p.[moe](A)[sp].d([m5C])[sp].d([m5C])[sp].d([m5C])[sp].d(A)[sp].d(G)[sp].d(G)[sp].d(G)[sp].d(T)[sp].[moe](A)p.[moe](G)p.[moe](G)p.[moe](A)[sp].[moe](T)}$$$$ (last 3' nucleoside missing) | 1 score 0-7 |
| RNA1{[moe]([m5C])[sp].[moe](A)p.[moe](T)p.[moe](A)p.[moe](T)p.d(A)[sp].d([m5C])[sp].d(T)[sp].d(A)[sp].d(A)[sp].d(A)[sp].d(T)[sp].d(G)[sp].d(T)[sp].d(T)[sp].[moe](G)p.[moe]([m5C])p.[moe]([m5C])[sp].[moe](G)}$$$$ (last 3' nucleoside missing) | 1 score 0-7 |
| RNA1{[moe]([m5C])[sp].[moe](A)p.[moe](T)p.[moe](A)p.[moe](T)p.d(G)[sp].d(A)[sp].d(A)[sp].d(G)[sp].d([m5C])[sp].d(T)[sp].d(A)[sp].d(T)[sp].d(A)[sp].d(G)[sp].[moe](G)p.[moe](T)p.[moe](A)[sp].[moe]([m5C])}$$$$ (last 3' nucleoside missing) | 1 score 0-7 |
